In article PMC9863987, “Identification of Aryl Polyamines Derivatives as Anti-Trypanosoma cruzi Agents Targeting Iron Superoxide Dismutase” (Pharmaceutics, 2022):

What was measured:
T. cruzi Arequipa strain [1] = assay: Nested amastigotes detection by PCR in nine target organs/tissues of infected BALB/c mice; assay type: in vivo, Trypanosoma cruzi; conditions: oral 20 mg/Kg/day for 5 days
Protocol: (§1) Infection was carried out by intraperitoneal inoculation of 5 × 10^5 BTs of T. cruzi Arequipa strain per mouse in 0.2 mL PBS [26]. The infection was monitored and on the 10th day post-infection (dpi), when BTs were visible in the bloodstream, the infection was confirmed.
(§2) Mice were divided into four groups (n = 3 per group): 0, negative control group (uninfected and untreated mice); I, positive control group (infected and untreated mice); II, BZN group (mice infected and treated with BZN); III, 15 group (mice infected and treated with 15).
(§3) The treatment for mice treated in the acute and chronic CD began when the infection was confirmed (10th dpi) and was stablished that the animals had entered the chronic CD (75th dpi), respectively (Scheme 1). Compound 15 and BZN were orally administered for 5 consecutive days at a dose of 20 mg·Kg^−1·day^−1.
After CP-induced immunosuppression, the mice were euthanised using CO2 by exsanguination via cardiac puncture, and blood was collected. Then, 9 target organs/tissues were harvested: adipose, bone marrow, brain, oesophagus, heart, lung, muscle, spleen, and stomach. These organs/tissues were perfused with pre-warmed PBS to avoid contamination with BTs, and stored at −80 °C. In addition, spleens were weighed to assess splenomegaly.
DNA extraction of the target organs/tissues was performed using Wizard® Genomic DNA Purification Kit. DNA was subjected to amplification by PCR based on the sequence of the T. cruzi splice leader (SL) intergenic region using two published primers (TC and TC1) that allow the amplification of a 300 base pairs fragment in different biological samples. […]

[2] = assay type: in vivo, BALB/c mice; conditions: oral 20 mg/Kg/day for 5 days; acute and chronic infections
Protocol: (§4) All animal work (Scheme 1) and maintenance was performed under RD53/2013 and approved by the Ethics Committee on Animal Experimentation (CEEA) of the University of Granada, Spain. Female BALB/c mice (aged 10–12 weeks and 20–22 g) were used in the subsequent in vivo assays.
as §1, §2, §3

[3] = test system: epimastigotes of T. cruzi Arequipa strain; assay: Mitochondrial membrane potential by flow cytometry (rhodamine 123); assay type: cell-based, Trypanosoma cruzi; conditions: compounds at IC25 concentrations, 72 h; KCN 10 mM, 40 min; mean of three ± SD
[4] = test system: T. cruzi SN3 strain epimastigotes; assay: Screening against extracellular epimastigotes, SN3 strain (resazurin); assay type: cell-based, Trypanosoma cruzi
Protocol: (§5) Three different T. cruzi […] strains—MHOM/Pe/2011/Arequipa, discrete typing unit (DTU) V [26]; IRHOD/CO/2008/SN3, DTU I [27]; TINF/CH/1956/Tulahuen, DTU VI [26]—were grown at 28 °C in Gibco® RPMI 1640 Medium supplemented as previously reported, and used for in vitro screening.
(§6) Trypanocidal activity against epimastigotes was tested as previously reported. In brief, 5 × 10^5 mL^−1 epimastigotes culture medium were treated by adding the compounds in serial dilutions from 100 to 0.2 µM in 96-well plates (200 µL·well^−1) for 48 h. BZN and untreated growth control were also included in triplicate. Later, 20 μL of resazurin sodium salt (Sigma-Aldrich, St. Louis, MO, USA) was added, and the plates were incubated for another 24 h. Finally, the absorbance of the wells was measured at 570/600 nm and related to the control. The trypanocidal activity was expressed as the IC50 (inhibitory concentration 50) value using GraphPad Prism 6 software.

[5] = test system: T. cruzi Tulahuen strain trypomastigotes; assay: Screening against bloodstream trypomastigotes, Tulahuen strain (resazurin); assay type: cell-based, Trypanosoma cruzi
[6] = test system: T. cruzi Arequipa strain epimastigotes; assay: Screening against extracellular epimastigotes, Arequipa strain (resazurin); assay type: cell-based, Trypanosoma cruzi
Protocol: as §5, §6

T. cruzi Arequipa strain [7] = assay: Infection reactivation by cyclophosphamide immunosuppression in infected BALB/c mice; assay type: in vivo, Trypanosoma cruzi; conditions: oral 20 mg/Kg/day for 5 days, related to control group
T. cruzi Arequipa strain [8] = assay: Monitoring of acute parasitaemia by counting in infected BALB/c mice; assay type: in vivo, Trypanosoma cruzi; conditions: acute infection
Protocol: as §4, §1, §2, §3
[…]. The fresh blood microscopic examination was performed from the 7th day until the day when parasitaemia was not detected (Scheme 1).

[9] = treatment in the acute infection
[10] = IC50 Vero cells/IC50 epimastigotes

## c1cc2nc(c1)CNCCN(CCNCc1ccc3ccc4ccc(CNCCN5CCNCc6cccc(n6)CNCC5)nc4c3n1)CCNC2 [Compound 15]
T. cruzi Arequipa strain [1]; [9]
  clearance of nested parasites in target organs/tissues (parasite-free organs/tissues, PCR): 67%
T. cruzi Arequipa strain [1]; treatment in the chronic infection
  clearance of nested parasites in target organs/tissues (parasite-free organs/tissues, PCR): 89%
[2]
  death or body mass loss of treated mice: none of the mice died or lost more than 10% body mass
[3]
  Inhibition on mitochondrial membrane potential with respect to untreated epimastigotes: 43.1%
[4]; [10]
  Selectivity Index T. cruzi SN3 Strain E: 38.7
[4]; Trypanosoma cruzi, epimastigotes, 48 h treatment + 24 h resazurin, mean of three ± SD, read-out: Activity IC50 T. cruzi SN3 Strain E
  IC50: 16.9 ± 1.4 µM
[5]; IC50 Vero cells/IC50 trypomastigotes
  Selectivity Index T. cruzi Tulahuen Strain T: 83.6
[5]; Trypanosoma cruzi, TULAHUEN, trypomastigotes, 24 h + 4 h resazurin, mean of three ± SD
  IC50: 7.8 ± 0.7 µM
[6]; [10]
  Selectivity Index T. cruzi Arequipa Strain E: 101.7
[6]; Trypanosoma cruzi, epimastigotes, 48 h treatment + 24 h resazurin, mean of three ± SD, read-out: Activity IC50 T. cruzi Arequipa Strain E
  IC50: 6.4 ± 0.6 µM
T. cruzi Arequipa strain [7]; [9]
  reactivation of parasitaemia after immunosuppression: 60%
T. cruzi Arequipa strain [7]; treatment in the chronic infection (from 75th dpi)
  reactivation of parasitaemia after immunosuppression: 26%
T. cruzi Arequipa strain [8]; oral 20 mg/Kg/day for 5 days from 10th dpi, vs untreated control
  parasitaemia reduction on the day of maximum parasitaemia: ~ 65%
T. cruzi Arequipa strain [8]; oral 20 mg/Kg/day for 5 days, control detectable up to 50 dpi
  parasitaemia undetectable, days before control mice: 5 days
